{"source": "patent US8207172B2", "about": "(Bayer Intellectual Property GmbH, priority 2004, dated 2012)", "key": {"[1]": {"test_system": "A431 cells (human epidermoid carcinoma)", "test": "In vitro tumor cell proliferation assay (Cell Titer-Glo luminescent cell viability), A431", "type": "cell-based", "conditions": "A-431, 72 h, 72 hours of drug exposure, ATP luminescence readout, read-out: IC50, anti-proliferative activity (inhibition of cell proliferation)", "how_it_was_run": "(§1)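 IC50 values reflect ATP-based luminescence (CellTiter-Glo) after 72 h compound exposure at 37°C. Both lines, A431 and BT474, were plated in RPMI with 10% FBS and received serial dilutions ranging from 100 μM to 64 pM final at 0.1% DMSO.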"}, "[2]": {"test_system": "BT474 (human breast carcinoma)", "test": "In vitro tumor cell proliferation assay (Cell Titer-Glo luminescent cell viability), BT474", "type": "cell-based", "conditions": "BT-474, 72 h, BT474 cells, 72 hours of drug exposure, ATP luminescence readout, read-out: IC50, anti-proliferative activity (inhibition of cell proliferation)", "how_it_was_run": "as §1"}}, "note": "Counter-ions that a name gives are not always drawn."}
{"smiles": "COCCN(CCOC)C[C@@H](O)Cn1ncc2c1CCc1c-2sc2ncnc(Nc3ccc(OCc4cccc(F)c4)c(Cl)c3)c12", "note": "[Example 164, (2R)-1-[bis(2-methoxyethyl)amino]-3-[6-({3-chloro-4-[(3-fluorobenzyl)oxy]phenyl}amino)-4,5-dihydro-3H-pyrimido[5′,4′:4,5]thieno[2,3-e]indazol-3-yl]propan-2-ol trifluoroacetate (salt)]", "values": [{"measurement": "IC50", "setting": "[1]", "result": "≤ 50", "unit": "µM"}, {"measurement": "IC50", "setting": "[2]", "result": "≤ 5", "unit": "µM"}]}
{"smiles": "OC[C@H]1CCCN1CCn1cc2c(n1)CCc1c-2sc2ncnc(Nc3ccc(F)c(Cl)c3)c12", "note": "[Example 29, [(2R)-1-(2-{6-[(3-chloro-4-fluorophenyl)amino]-4,5-dihydro-2H-pyrimido[5′,4′:4,5]thieno[2,3-e]indazol-2-yl}ethyl)pyrrolidin-2-yl]methanol]", "values": [{"measurement": "IC50", "setting": "[1]", "result": "≤ 5", "unit": "µM"}, {"measurement": "IC50", "setting": "[2]", "result": "≤ 5", "unit": "µM"}]}
{"smiles": "CN(C)C1CCN(C(=O)Cn2ncc3c2CCc2c-3sc3ncnc(Nc4ccc(OCc5cccc(F)c5)c(Cl)c4)c23)C1", "note": "(stereo in doubt) [Example 211, N-{3-chloro-4-[(3-fluorobenzyl)oxy]phenyl}-3-{2-[(3R)-3-(dimethylamino)pyrrolidin-1-yl]-2-oxoethyl}-4,5-dihydro-3H-pyrimido[5′,4′:4,5]thieno[2,3-e]indazol-6-amine]", "values": [{"measurement": "IC50", "setting": "[1]", "result": "≤ 5", "unit": "µM"}, {"measurement": "IC50", "setting": "[2]", "result": "≤ 1", "unit": "µM"}]}
{"smiles": "COCCNC(=O)Cn1ncc2c1CCc1c-2sc2ncnc(Nc3ccc(OCc4cccc(F)c4)c(Cl)c3)c12", "note": "[Example 207, 2-[6-({3-chloro-4-[(3-fluorobenzyl)oxy]phenyl}amino)-4,5-dihydro-3H-pyrimido[5′,4′:4,5]thieno[2,3-e]indazol-3-yl]-N-(2-methoxyethyl)acetamide]", "values": [{"measurement": "IC50", "setting": "[1]", "result": "≤ 50", "unit": "µM"}, {"measurement": "IC50", "setting": "[2]", "result": "≤ 1", "unit": "µM"}]}
{"smiles": "CCN1CCN(CCn2cc3c(n2)CCc2c-3sc3ncnc(Nc4ccc(F)c(Cl)c4)c23)CC1", "note": "[Example 36, N-(3-chloro-4-fluorophenyl)-2-[2-(4-ethylpiperazin-1-yl)ethyl]-4,5-dihydro-2H-pyrimido[5′,4′:4,5]thieno[2,3-e]indazol-6-amine]", "values": [{"measurement": "IC50", "setting": "[1]", "result": "≤ 5", "unit": "µM"}, {"measurement": "IC50", "setting": "[2]", "result": "≤ 5", "unit": "µM"}]}
{"smiles": "OCCn1ncc2c1CCc1c-2sc2ncnc(Nc3ccc(OCc4ccccn4)c(Cl)c3)c12", "note": "[Example 100, 2-(6-{[3-chloro-4-(pyridin-2-ylmethoxy)phenyl]amino}-4,5-dihydro-2H-pyrimido[5′,4′:4,5]thieno[2,3-e]indazol-3-yl)ethanol]", "values": [{"measurement": "IC50", "setting": "[1]", "result": "≤ 5", "unit": "µM"}, {"measurement": "IC50", "setting": "[2]", "result": "≤ 1", "unit": "µM"}]}
{"smiles": "CC(C)N1CCC(Cn2cc3c(n2)CCc2c-3sc3ncnc(Nc4ccc(OCc5cccc(F)c5)c(Cl)c4)c23)CC1", "note": "[Example 245, N-{3-chloro-4-[(3-fluorobenzyl)oxy]phenyl}-2-[(1-isopropylpiperidin-4-yl)methyl]-4,5-dihydro-2H-pyrimido[5′,4′:4,5]thieno[2,3-e]indazol-6-amine]", "values": [{"measurement": "IC50", "setting": "[1]", "result": "≤ 5", "unit": "µM"}, {"measurement": "IC50", "setting": "[2]", "result": "≤ 1", "unit": "µM"}]}
{"smiles": "OC[C@@H]1CCCN1CCn1cc2c(n1)CCc1c-2sc2ncnc(Nc3ccc(F)c(Cl)c3)c12", "note": "[Example 32, [(2S)-1-(2-{6-[(3-chloro-4-fluorophenyl)amino]-4,5-dihydro-2H-pyrimido[5′,4′:4,5]thieno[2,3-e]indazol-2-yl}ethyl)pyrrolidin-2-yl]methanol]", "values": [{"measurement": "IC50", "setting": "[1]", "result": "≤ 5", "unit": "µM"}, {"measurement": "IC50", "setting": "[2]", "result": "≤ 5", "unit": "µM"}]}
{"smiles": "O=C(Cn1ncc2c1CCc1c-2sc2ncnc(Nc3ccc(OCc4cccc(F)c4)c(Cl)c3)c12)N1CCNCC1", "note": "[Example 201, N-{3-chloro-4-[(3-fluorobenzyl)oxy]phenyl}-3-(2-oxo-2-piperazin-1-ylethyl)-4,5-dihydro-3H-pyrimido[5′,4′:4,5]thieno[2,3-e]indazol-6-amine]", "values": [{"measurement": "IC50", "setting": "[1]", "result": "≤ 5", "unit": "µM"}, {"measurement": "IC50", "setting": "[2]", "result": "≤ 1", "unit": "µM"}]}
{"smiles": "COc1cccc(COc2ccc(Nc3ncnc4sc5c(c34)CCc3nn(CCN4CCN(C)CC4)cc3-5)cc2Cl)c1", "note": "[Example 324, N-{3-chloro-4-[(3-methoxybenzyl)oxy]phenyl}-2-[2-(4-methylpiperazin-1-yl)ethyl]-4,5-dihydro-2H-pyrimido[5′,4′:4,5]thieno[2,3-e]indazol-6-amine]", "values": [{"measurement": "IC50", "setting": "[1]", "result": "≤ 5", "unit": "µM"}, {"measurement": "IC50", "setting": "[2]", "result": "≤ 5", "unit": "µM"}]}
{"smiles": "CCN1CCN(C(=O)Cn2cc3c(n2)CCc2c-3sc3ncnc(Nc4ccc(OCc5cccc(F)c5)c(Cl)c4)c23)CC1", "note": "[Example 185, N-{3-chloro-4-[(3-fluorobenzyl)oxy]phenyl}-2-[2-(4-ethylpiperazin-1-yl)-2-oxoethyl]-4,5-dihydro-2H-pyrimido[5′,4′:4,5]thieno[2,3-e]indazol-6-amine]", "values": [{"measurement": "IC50", "setting": "[1]", "result": "≤ 5", "unit": "µM"}, {"measurement": "IC50", "setting": "[2]", "result": "≤ 1", "unit": "µM"}]}
{"smiles": "Cc1cc(Nc2ncnc3sc4c(c23)CCc2c-4cnn2CCN2CCN(C)CC2)ccc1OCc1cccc(F)c1", "note": "[Example 323, N-{4-[(3-fluorobenzyl)oxy]-3-methylphenyl}-3-[2-(4-methylpiperazin-1-yl)ethyl]-4,5-dihydro-3H-pyrimido[5′,4′:4,5]thieno[2,3-e]indazol-6-amine]", "values": [{"measurement": "IC50", "setting": "[1]", "result": "≤ 5", "unit": "µM"}, {"measurement": "IC50", "setting": "[2]", "result": "≤ 1", "unit": "µM"}]}
{"smiles": "CN1CCN(CCn2ncc3c2CCc2c-3sc3ncnc(Nc4ccc(OCc5cccc(Cl)c5)c(Cl)c4)c23)CC1", "note": "[Example 317, N-{3-chloro-4-[(3-chlorobenzyl)oxy]phenyl}-3-[2-(4-methylpiperazin-1-yl)ethyl]-4,5-dihydro-3H-pyrimido[5′,4′:4,5]thieno[2,3-e]indazol-6-amine trifluoroacetate]", "values": [{"measurement": "IC50", "setting": "[1]", "result": "≤ 5", "unit": "µM"}, {"measurement": "IC50", "setting": "[2]", "result": "≤ 1", "unit": "µM"}]}
{"smiles": "CC(C)CCN1CCC(CCn2cc3c(n2)CCc2c-3sc3ncnc(Nc4ccc(OCc5cccc(F)c5)c(Cl)c4)c23)CC1", "note": "[Example 256, N-{3-chloro-4-[(3-fluorobenzyl)oxy]phenyl}-2-{2-[1-(3-methylbutyl)piperidin-4-yl]ethyl}-4,5-dihydro-2H-pyrimido[5′,4′:4,5]thieno[2,3-e]indazol-6-amine]", "values": [{"measurement": "IC50", "setting": "[1]", "result": "≤ 5", "unit": "µM"}, {"measurement": "IC50", "setting": "[2]", "result": "≤ 1", "unit": "µM"}]}
{"smiles": "Cc1nccn1CCn1cc2c(n1)CCc1c-2sc2ncnc(Nc3ccc(F)c(Cl)c3)c12", "note": "[Example 37, N-(3-chloro-4-fluorophenyl)-2-[2-(2-methyl-1H-imidazol-1-yl)ethyl]-4,5-dihydro-2H-pyrimido[5′,4′:4,5]thieno[2,3-e]indazol-6-amine]", "values": [{"measurement": "IC50", "setting": "[1]", "result": "≤ 5", "unit": "µM"}, {"measurement": "IC50", "setting": "[2]", "result": "≤ 5", "unit": "µM"}]}
{"smiles": "O=C(Cn1ncc2c1CCc1c-2sc2ncnc(Nc3ccc(OCc4cccc(F)c4)c(Cl)c3)c12)N1CC[C@H](O)C1", "note": "[Example 214, 1-{[6-({3-chloro-4-{(3-fluorobenzyl)oxy]phenyl}amino)-4,5-dihydro-3H-pyrimido[5′,4′:4,5]thieno[2,3-e]indazol-3-yl]acetyl}pyrrolidin-3-ol]", "values": [{"measurement": "IC50", "setting": "[1]", "result": "≤ 5", "unit": "µM"}, {"measurement": "IC50", "setting": "[2]", "result": "≤ 1", "unit": "µM"}]}
{"smiles": "Fc1cccc(COc2ccc(Nc3ncnc4sc5c(c34)CCc3nn(CCN4CCCC4)cc3-5)cc2Cl)c1", "note": "[Example 65, N-{3-chloro-4-[(3-fluorobenzyl)oxy]phenyl}-2-(2-pyrrolidin-1-ylethyl)-4,5-dihydro-2H-pyrimido[5′,4′:4,5]thieno[2,3-e]indazol-6-amine]", "values": [{"measurement": "IC50", "setting": "[1]", "result": "≤ 5", "unit": "µM"}, {"measurement": "IC50", "setting": "[2]", "result": "≤ 1", "unit": "µM"}]}
{"smiles": "CN1CCC(CCn2cc3c(n2)CCc2c-3sc3ncnc(Nc4ccc(OCc5cccc(F)c5)c(Cl)c4)c23)CC1", "note": "[Example 255, N-{3-chloro-4-[(3-fluorobenzyl)oxy]phenyl}-2-[2-(1-methylpiperidin-4-yl)ethyl]-4,5-dihydro-2H-pyrimido[5′,4′:4,5]thieno[2,3-e]indazol-6-amine]", "values": [{"measurement": "IC50", "setting": "[1]", "result": "≤ 5", "unit": "µM"}, {"measurement": "IC50", "setting": "[2]", "result": "≤ 1", "unit": "µM"}]}
{"smiles": "CN1CCC(Cn2cc3c(n2)CCc2c-3sc3ncnc(Nc4ccc(OCc5cccc(F)c5)c(Cl)c4)c23)CC1", "note": "[Example 236, N-{3-chloro-4-[(3-fluorobenzyl)oxy]phenyl}-2-[(1-methylpiperidin-4-yl)methyl]-4,5-dihydro-2H-pyrimido[5′,4′:4,5]thieno-[2,3-e]indazol-6-amine]", "values": [{"measurement": "IC50", "setting": "[1]", "result": "≤ 5", "unit": "µM"}, {"measurement": "IC50", "setting": "[2]", "result": "≤ 1", "unit": "µM"}]}
